Results on 2 compounds are retold here after patent publication US20210015884A1 (priority 2018, published 2021).

SMILES strings stand for the structures.

The test system of this test is m^6A levels in viral RNA. It is filed as cell-based.

As for `Nc1nccc2c1ncn2[C@@H]1O[C@H](CO)[C@@H](O)[C@H]1O` [3DZA, 3-Deazaadenosine], the “total m^6A levels in viral RNA” value is “reduction of m^6A”.

Consider `Cc1ccc(Cl)c(Nc2ccccc2C(=O)O)c1Cl` [MA, meclofenamic acid], for which the “total m^6A levels in viral RNA” value is recorded as “increase of m^6A”.
